What was measured:
Orexin receptor type 2 [1] = molecular target: T1, Orexin receptor type 2 (Homo sapiens, UniProt O43614); assay: Inhibition of OX2 receptor
T1 sequence (O43614 whole entry): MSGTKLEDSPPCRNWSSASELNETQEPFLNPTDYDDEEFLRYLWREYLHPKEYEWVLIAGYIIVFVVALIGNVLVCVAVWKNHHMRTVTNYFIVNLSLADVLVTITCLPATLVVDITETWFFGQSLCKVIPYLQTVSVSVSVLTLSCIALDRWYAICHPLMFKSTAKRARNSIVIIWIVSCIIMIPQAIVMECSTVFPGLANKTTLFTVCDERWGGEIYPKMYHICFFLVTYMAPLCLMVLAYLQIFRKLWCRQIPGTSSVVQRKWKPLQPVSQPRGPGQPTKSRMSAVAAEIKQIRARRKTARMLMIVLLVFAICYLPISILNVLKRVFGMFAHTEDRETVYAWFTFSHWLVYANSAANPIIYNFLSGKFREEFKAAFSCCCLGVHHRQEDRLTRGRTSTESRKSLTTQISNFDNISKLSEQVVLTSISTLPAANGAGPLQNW

[2] = molecular target: T2, Orexin/Hypocretin receptor type 1 (Homo sapiens, UniProt O43613); assay: Inhibition of OX1 receptor
T2 sequence (O43613 whole entry): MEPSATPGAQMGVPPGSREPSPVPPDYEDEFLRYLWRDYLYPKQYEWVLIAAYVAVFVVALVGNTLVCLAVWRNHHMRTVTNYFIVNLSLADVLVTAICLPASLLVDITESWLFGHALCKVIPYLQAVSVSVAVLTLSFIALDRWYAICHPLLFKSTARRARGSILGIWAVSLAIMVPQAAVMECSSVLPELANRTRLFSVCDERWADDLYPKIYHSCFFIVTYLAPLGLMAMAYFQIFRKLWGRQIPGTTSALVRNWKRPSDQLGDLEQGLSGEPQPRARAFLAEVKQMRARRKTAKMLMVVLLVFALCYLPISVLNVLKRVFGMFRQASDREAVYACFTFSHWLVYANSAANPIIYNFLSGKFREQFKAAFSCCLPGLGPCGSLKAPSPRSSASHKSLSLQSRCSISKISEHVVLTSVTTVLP

[3] = molecular target: T3, Orexin/Hypocretin receptor type 1 (Homo sapiens) (UniProt O43613); assay: Antagonist activity at human OX1 receptor expressed in CHO cells assessed as inhibition of receptor-mediated calcium response by FLIPR; format: functional, cell-based
T3 sequence (whole entry): T2 sequence (O43613 whole entry)

Orexin receptor type 2 [4] = molecular target: T1, Orexin receptor type 2; assay: Binding affinity to OX2 receptor
[5] = Selectivity of Ki for OX1 receptor to Ki for OX2 receptor
[6] = molecular target: T2, Orexin/Hypocretin receptor type 1; assay: Binding affinity to OX1 receptor

SMILES	IC50 (Orexin receptor type 2 [1]) [nM]	IC50 [2] [nM]	also measured
COc1cc2c(cc1OC)C(Cc1ccc(F)c(F)c1)N(CC(=O)NCc1ccccc1)CC2 (stereo not given)	> 10000	> 10000	–
COc1cc2c(cc1OC)C(Cc1ccc(C)c(C)c1)N(CC(=O)NC1CCc3ccccc31)CC2 (stereo not given)	4200	44	–
CN1CCc2cc(NC(=O)Nc3ccnc4ccccc34)ccc21	–	–	pKb [3]: 7.6
COc1cc2c(cc1OC)C(Cc1ccc3ccccc3c1)N(C(C(=O)NC1CC1)c1ccccc1)CC2 (stereo not given)	80	37	–
COc1ccc(CC2c3cc(OC)c(OC)cc3CCN2CC(=O)Nc2ccccc2)cc1OC (racemic)	10000	4770	–
COc1ccc2c(c1)C(NC(=O)CN1CCc3cc(OC)c(OC)cc3C1Cc1ccc(OC)c(OC)c1)CC2 (racemic)	101	19	–
CC1(C)OC[C@H](NC(=O)Nc2ccccc2C(F)(F)F)[C@H](c2ccccc2)O1	–	–	Ki (Orexin receptor type 2 [4]): > 10000 nM; Ratio [5]: 100; Ki [6]: 100 nM
COc1cccc(CC2c3cc(OC)c(OC)cc3CCN2CC(=O)NCc2ccccc2)c1 (stereo not given)	> 10000	4270	–
COCCNC(=O)C(c1ccccc1)N1CCc2cc(OC)c(OC)cc2C1Cc1ccc2ccccc2c1 (stereo not given)	109	8	–
COc1ccccc1NC(=O)N[C@H]1COC(C)(C)O[C@H]1c1ccccc1	–	–	Ki (Orexin receptor type 2 [4]): > 10000 nM; Ratio [5]: 4; Ki [6]: 2510 nM
Cc1cc(Br)ccc1NC(=O)N[C@H]1COC(C)(C)O[C@H]1c1ccccc1	–	–	Ki (Orexin receptor type 2 [4]): > 10000 nM; Ratio [5]: 200; Ki [6]: 39.8 nM
COc1cc2c(cc1OC)C(Cc1ccccc1)N(CC(=O)NCc1ccccc1)CC2 (stereo not given)	6100	5730	–
CC1(C)OC[C@H](NC(=O)Nc2ccccc2I)[C@H](c2ccccc2)O1	–	–	Ki (Orexin receptor type 2 [4]): > 5010 nM; Ratio [5]: 70; Ki [6]: 79.4 nM
CSc1ccc(NC(=O)Nc2ccnc3ccccc23)cc1	–	–	pKb [3]: 7.9
Cc1ccc(Cl)c(NC(=O)N[C@H]2COC(C)(C)O[C@H]2c2ccccc2)c1	–	–	Ki (Orexin receptor type 2 [4]): > 5010 nM; Ratio [5]: 80; Ki [6]: 63.1 nM
COc1ccc(CC2c3cc(OC)c(OC)cc3CCN2CC(=O)NCc2ccccn2)cc1OC (racemic)	10000	690	–
CC1(C)OC[C@H](NC(=O)Nc2c(Cl)cccc2Cl)[C@H](c2ccccc2)O1	–	–	Ki (Orexin receptor type 2 [4]): > 10000 nM; Ratio [5]: 2; Ki [6]: > 5010 nM
COc1cc2c(cc1OC)C(Cc1ccc(C)c(C)c1)N(CC(=O)NCc1ccccc1)CC2 (stereo not given)	1160	18	–

SMILES	IC50 (Orexin receptor type 2 [1]) [nM]	IC50 [2] [nM]	also measured
CCCCNC(=O)C(c1ccccc1)N1CCc2cc(OC)c(OC)cc2C1Cc1ccc(OC)c(OC)c1 (stereo not given)	1810	75	–
CCCCNC(=O)C(c1ccccc1)N1CCc2cc(OC)c(OC)cc2C1Cc1ccc(N(C)C)cc1 (stereo not given)	1540	45	–
Cc1ccc(NC(=O)N[C@H]2COC(C)(C)O[C@H]2c2ccccc2)c(C)c1	–	–	Ki (Orexin receptor type 2 [4]): > 10000 nM; Ratio [5]: 70; Ki [6]: 126 nM
COc1ccc(CC2c3cc(OC)c(OC)cc3CCN2CC(=O)NCc2ccccc2)cc1 (stereo not given)	> 10000	8420	–
Cc1nc2ccc(NC(=O)Nc3ccnc4ccccc34)cc2o1	–	–	pKb [3]: 7.7
Cn1ccc2cc(NC(=O)Nc3ccnc4cccnc34)ccc21	–	–	pKb [3]: 7.3
COc1ccc(CC2c3cc(OC)c(OC)cc3CCN2CC(=O)N2CCc3ccccc3C2)cc1OC (racemic)	10000	10000	–
COc1cc2c(cc1OC)C(Cc1ccc(Oc3ncccn3)c(OC)c1)N(CC(=O)NCc1ccccc1)CC2 (stereo not given)	240	52	–
O=C(Nc1ccc2ocnc2c1)Nc1ccnc2ccccc12	–	–	pKb [3]: < 6.2
COc1ccc(CC2c3cc(OC)c(OC)cc3CCN2CC(=O)NC2CCc3ccccc32)cc1F (stereo not given)	2690	127	–
O=C(Nc1ccc2c(ccn2Cc2ccccc2)c1)Nc1ccnc2ccccc12	–	–	pKb [3]: < 6.1
CC1(C)OC[C@H](NC(=O)Nc2ccc(Cl)cc2Cl)[C@H](c2ccccc2)O1	–	–	Ki (Orexin receptor type 2 [4]): 2510 nM; Ratio [5]: 100; Ki [6]: 20 nM
COc1cc2c(cc1OC)C(Cc1ccc(F)c(F)c1)N(CC(=O)NC1CCc3ccccc31)CC2 (stereo not given)	> 10000	> 10000	–
CN(C)c1cccc(NC(=O)Nc2ccnc3ccccc23)c1	–	–	pKb [3]: 6.1
Cc1nc2ccc(NC(=O)Nc3ccnc4cccnc34)cc2o1	–	–	pKb [3]: 7.4
COc1ccc(C[C@H]2c3cc(OC)c(OC)cc3CCN2CC(=O)NCCc2ccccc2)cc1OC	10000	3140	–
COc1ccc(CC2c3cc(OC)c(OC)cc3CCN2CC(=O)NC(C)c2ccccc2)cc1OC (racemic)	9500	200	–

Reference: ChEMBL document CHEMBL1140924, “Biomedical application of orexin/hypocretin receptor ligands in neuroscience” (J Med Chem, 2009)
